Tests used:
[1] = target: PHD2 enzyme (residues 181-417) (Homo sapiens (Human), UniProt Q9GZT9); experiment: Inhibition of PHD enzyme (LC/MS peptide hydroxylation assay); assay type: biochemical; details: PHD2 (residues 181-417) 5 nM, 60 min pre-incubation; -log(IC50), IC50 molar
Outline: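 Hydroxylated peptide quantified by LC/MS after 60 min turnover of 1 uM biotinylated peptide with 2 uM 2-oxoglutarate and 1 mM ascorbate, stopped by excess tight-binding inhibitor. Beforehand, 5 nM enzyme and compound were preincubated 60 min at RT, pH 7.3 HEPES/KCl/TCEP/FeCl2/BSA buffer. Values as pIC50 (−log molar IC50).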

[2] = system: HIF1a protein in H9c2 rat cardiomyocytes; experiment: Cell-based HIF-alpha stabilization assay (inhibition of PHD in cells); details: 24 hrs compound incubation, HIF1a protein by ELISA; for EC50: Rattus norvegicus, H9c2, 24 h, read-out: Inhibition of PHD in cells (pEC50) (converted)
Outline: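 HIF1a stabilization was measured by ELISA on lysates of H9c2 rat cardiomyocytes after 24 h exposure to 11 serial compound concentrations, expressed relative to the desferrioxamine maximum. Curve fits gave EC50. EC50pos denotes the concentration producing half the desferrioxamine maximal response.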

Chain of PHD2 enzyme (residues 181-417) (Q9GZT9 181-417): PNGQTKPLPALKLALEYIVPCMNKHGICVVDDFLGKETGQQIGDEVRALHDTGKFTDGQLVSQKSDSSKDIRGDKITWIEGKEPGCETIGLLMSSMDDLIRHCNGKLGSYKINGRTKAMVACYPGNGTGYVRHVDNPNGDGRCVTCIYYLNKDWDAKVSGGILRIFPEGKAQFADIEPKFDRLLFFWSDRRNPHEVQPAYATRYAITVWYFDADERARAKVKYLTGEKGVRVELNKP

PHD Inhibition (pIC50) [1]	Structure (SMILES)	EC50 [2] [nM]	Inhibition of PHD in cells (pEC50) [2]
7.6	COCCNC(=O)c1ccc(-n2ncc(-c3ccc(C#N)cc3)c2O)nc1 [Example 152, 6-(4-(4-cyanophenyl)-5-hydroxy-1H-pyrazol-1-yl)-N-(2-methoxyethyl)nicotinamide]	2040	–
7.64	N#Cc1ccc(-c2cnn(-c3ccc(C(=O)NCCC4CCOC4)cn3)c2O)cc1 (stereo not shown) [Example 177, 6-(4-(4-cyanophenyl)-5-hydroxy-1H-pyrazol-1-yl)-N-(2-(tetrahydrofuran-3-yl)ethyl)nicotinamide]	309	–
8.60	CCCN1CCN(C(=O)c2ccc(-n3ncc(-c4ccc(C#N)cc4C)c3O)nc2)CC1 [Example 283, 4-(5-hydroxy-1-(5-(4-propylpiperazine-1-carbonyl)pyridin-2-yl)-1H-pyrazol-4-yl)-3-methylbenzonitrile]	–	5.72
7.47	N#Cc1ccc(-c2cnn(-c3ccc(C(=O)N4CCC[C@H]4CN4CCCC4)cn3)c2O)cc1 [Example 352, (S)-4-(5-hydroxy-1-(5-(2-(pyrrolidin-1-ylmethyl)pyrrolidine-1-carbonyl)pyridin-2-yl)-1H-pyrazol-4-yl)benzonitrile]	3470	–
7.60	Cc1c(-c2cnn(-c3ccc(C(=O)N4CC5(CN(C)C5)C4)cn3)c2O)ccc(C#N)c1F [Example 342, 2-fluoro-4-(5-hydroxy-1-(5-(6-methyl-2,6-diazaspiro[3.3]heptane-2-carbonyl)pyridin-2-yl)-1H-pyrazol-4-yl)-3-methylbenzonitrile]	427	–
7.9	Cc1cc(C#N)ccc1-c1cnn(-c2ccc(C(=O)NCC3CCN(C)CC3)cn2)c1O [Example 94, 6-(4-(4-cyano-2-methylphenyl)-5-hydroxy-1H-pyrazol-1-yl)-N-((1-methylpiperidin-4-yl)methyl)nicotinamide]	93.3	–
8.18	COCCCNC(=O)c1ccc(-n2ncc(-c3cc(OC)c(C#N)cc3C)c2O)nc1 [Example 426, 6-(4-(4-cyano-5-methoxy-2-methylphenyl)-5-hydroxy-1H-pyrazol-1-yl)-N-(3-methoxypropyl)nicotinamide]	2140	–
8.17	CCN(CC)C1CCCN(C(=O)c2ccc(-n3ncc(-c4ccc(C#N)cc4C)c3O)nc2)C1 (stereo not shown) [Example 380, 4-(1-(5-(3-(diethylamino)piperidine-1-carbonyl)pyridin-2-yl)-5-hydroxy-1H-pyrazol-4-yl)-3-methylbenzonitrile]	575	–
7.74	CCN1CCC(N(C)C(=O)c2ccc(-n3ncc(-c4ccc(C#N)cc4C)c3O)nc2)CC1 [Example 425, 6-(4-(4-cyano-2-methylphenyl)-5-hydroxy-1H-pyrazol-1-yl)-N-(1-ethylpiperidin-4-yl)-N-methylnicotinamide]	776	–
8.44	Cc1c(-c2cnn(-c3ccc(C(=O)N4CCCC4)cn3)c2O)ccc(C#N)c1F [Example 325, 2-fluoro-4-(5-hydroxy-1-(5-(pyrrolidine-1-carbonyl)pyridin-2-yl)-1H-pyrazol-4-yl)-3-methylbenzonitrile]	977	–
8.11	Cc1cc(C#N)ccc1-c1cnn(-c2ccc(C(=O)N3CC[C@H](N(C)C)C3)cn2)c1O [Example 412, (S)-4-(1-(5-(3-(dimethylamino)pyrrolidine-1-carbonyl)pyridin-2-yl)-5-hydroxy-1H-pyrazol-4-yl)-3-methylbenzonitrile]	282	–
8.43	Cc1c(-c2cnn(-c3ccc(C(=O)N4CC(N5CCCCC5)C4)cn3)c2O)ccc(C#N)c1F [Example 335, 2-fluoro-4-(5-hydroxy-1-(5-(3-(piperidin-1-yl)azetidine-1-carbonyl)pyridin-2-yl)-1H-pyrazol-4-yl)-3-methylbenzonitrile]	1320	–
8	Cc1cc(C#N)ccc1-c1cnn(-c2ccc(C(=O)N3CC4(COC4)C3)cn2)c1O [Example 185, 4-(1-(5-(2-oxa-6-azaspiro[3.3]heptane-6-carbonyl)pyridin-2-yl)-5-hydroxy-1H-pyrazol-4-yl)-3-methylbenzonitrile]	562	–
8.01	COCCCNC(=O)c1ccc(-n2ncc(-c3c(C)cc(C#N)cc3F)c2O)nc1 [Example 404, 6-(4-(4-cyano-2-fluoro-6-methylphenyl)-5-hydroxy-1H-pyrazol-1-yl)-N-(3-methoxypropyl)nicotinamide]	631	–
6.99	N#Cc1ccc(-c2cnn(-c3ccc(C(=O)NCC4CC(F)(F)C4)cn3)c2O)cc1 [Example 264, 6-(4-(4-cyanophenyl)-5-hydroxy-1H-pyrazol-1-yl)-N-((3,3-difluorocyclobutyl)methyl)nicotinamide]	1620	–
7.15	COc1cc(-c2cnn(-c3ccc(C(=O)NC4CCC4)cn3)c2O)ccn1 [Example 13, N-cyclobutyl-6-(5-hydroxy-4-(2-methoxypyridin-4-yl)-1H-pyrazol-1-yl)nicotinamide]	417	–
7.76	Cc1cc(C#N)ccc1-c1cnn(-c2ccc(C(=O)N(C)CC3CCCN(C)C3)cn2)c1O (stereo not shown) [Example 361, 6-(4-(4-cyano-2-methylphenyl)-5-hydroxy-1H-pyrazol-1-yl)-N-methyl-N-((1-methylpiperidin-3-yl)methyl)nicotinamide]	457	–
6.95	COCCCNC(=O)c1ccc(-n2ncc(-c3ccc(C#N)cc3OC)c2O)nc1 [Example 231, 6-(4-(4-cyano-2-methoxyphenyl)-5-hydroxy-1H-pyrazol-1-yl)-N-(3-methoxypropyl)nicotinamide]	372	–
7.23	CN(CCCN1CCCCC1)C(=O)c1ccc(-n2ncc(-c3ccc(C#N)cc3)c2O)nc1 [Example 304, 6-(4-(4-cyanophenyl)-5-hydroxy-1H-pyrazol-1-yl)-N-methyl-N-(3-(piperidin-1-yl)propyl)nicotinamide]	2820	–
8.17	Cc1cc(C#N)ccc1-c1cnn(-c2ccc(C(=O)N3CC(N4CCCCC4)C3)cn2)c1O [Example 344, 4-(5-hydroxy-1-(5-(3-(piperidin-1-yl)azetidine-1-carbonyl)pyridin-2-yl)-1H-pyrazol-4-yl)-3-methylbenzonitrile]	468	–
7.5	N#Cc1ccc(-c2cnn(-c3ccc(C(=O)N[C@H]4CC[C@@H](O)CC4)cn3)c2O)cc1 [Example 164, 6-(4-(4-cyanophenyl)-5-hydroxy-1H-pyrazol-1-yl)-N-((1 s,4s)-4-hydroxycyclohexyl)nicotinamide]	525	–
7.58	CNC(=O)c1ccc(-n2ncc(-c3ccc(C#N)cc3)c2O)nc1 [Example 150, 6-(4-(4-cyanophenyl)-5-hydroxy-1H-pyrazol-1-yl)-N-methylnicotinamide]	2510	–
7.46	COc1cc(-c2cnn(-c3ccc(C(=O)N[C@H]4CC[C@H](O)CC4)cn3)c2O)ccn1 [Example 167, 6-(5-hydroxy-4-(2-methoxypyridin-4-yl)-1H-pyrazol-1-yl)-N-((1r,4r)-4-hydroxycyclohexyl)nicotinamide]	282	–

— US10407409B2, “6-(5-hydroxy-1H-pyrazol-1-yl)nicotinamide inhibitors of PHD” (Takeda Pharmaceutical Company Limited, priority 2013, dated 2019)
